Consider one compound from paper PMC9996622 (ACS Omega, 2023).

In the experiment the target is T1, DnaE1 (Mycobacterium tuberculosis, UniProt P9WNT7).
T1 sequence (P9WNT7 1-1184): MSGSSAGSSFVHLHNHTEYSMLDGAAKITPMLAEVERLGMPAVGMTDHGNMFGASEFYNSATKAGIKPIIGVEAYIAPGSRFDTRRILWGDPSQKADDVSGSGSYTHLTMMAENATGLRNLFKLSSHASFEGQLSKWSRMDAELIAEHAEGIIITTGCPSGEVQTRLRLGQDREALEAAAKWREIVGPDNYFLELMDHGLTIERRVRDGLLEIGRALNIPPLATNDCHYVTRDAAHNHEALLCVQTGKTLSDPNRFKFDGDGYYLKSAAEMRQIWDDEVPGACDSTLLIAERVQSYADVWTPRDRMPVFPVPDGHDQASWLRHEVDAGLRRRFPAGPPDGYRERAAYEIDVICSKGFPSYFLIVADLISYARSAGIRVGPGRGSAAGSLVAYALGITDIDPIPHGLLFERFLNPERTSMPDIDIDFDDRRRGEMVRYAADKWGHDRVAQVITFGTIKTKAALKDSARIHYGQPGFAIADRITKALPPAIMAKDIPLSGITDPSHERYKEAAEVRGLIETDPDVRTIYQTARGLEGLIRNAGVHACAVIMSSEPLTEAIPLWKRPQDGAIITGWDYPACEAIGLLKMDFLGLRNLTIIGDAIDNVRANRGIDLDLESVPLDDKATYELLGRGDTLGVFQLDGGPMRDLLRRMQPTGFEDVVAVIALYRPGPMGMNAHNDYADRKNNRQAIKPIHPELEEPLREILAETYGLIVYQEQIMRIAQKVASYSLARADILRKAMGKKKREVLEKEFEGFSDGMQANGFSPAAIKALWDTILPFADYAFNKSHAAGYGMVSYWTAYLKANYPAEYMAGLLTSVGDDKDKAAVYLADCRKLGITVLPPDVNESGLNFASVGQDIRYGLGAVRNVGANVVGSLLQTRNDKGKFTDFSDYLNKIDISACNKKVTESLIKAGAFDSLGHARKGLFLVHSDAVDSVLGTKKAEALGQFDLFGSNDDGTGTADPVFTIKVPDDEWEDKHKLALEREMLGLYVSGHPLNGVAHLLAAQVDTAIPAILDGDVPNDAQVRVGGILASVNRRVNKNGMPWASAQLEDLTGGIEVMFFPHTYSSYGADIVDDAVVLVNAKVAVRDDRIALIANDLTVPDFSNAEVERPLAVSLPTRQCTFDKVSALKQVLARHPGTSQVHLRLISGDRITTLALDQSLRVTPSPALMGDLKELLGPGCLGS
Nature of the experiment: 2-aminopurine fluorescence exonuclease assay, dose-response. It counts as biochemical.

Regarding `OC[C@H]1O[C@@H](n2cnc3c(S)ncnc32)[C@H](O)[C@@H]1O` [6-thioinosine], the IC50 came to 64 µM.

By IC50 is commonly meant the concentration needed to halve the response being measured. Read a high IC50 as weaker potency in that assay.
